We go through one compound from PMC3340383, “Synthesis and Evaluation of a Series of 2-Substituted-5-Thiopropylpiperazine (Piperidine)-1,3,4-Oxadiazoles Derivatives as Atypical Antipsychotics” (PLoS ONE, 2012).

The target in one data set is T1, histamine H1 receptor (Cavia porcellus, UniProt P31389).
T1 construct: Guinea pig cerebellum was homogenized in 20 volumes of ice-cold 50 mM phosphate buffer; from tissue; host or cells: guinea pig cerebellum
The experiment in a line: Histamine H1 binding assay ([3H]pyrilamine, guinea pig cerebellum). The settings on record: [3H]pyrilamine, guinea pig cerebellum; mean of three experiments; >10000 marked b: Ki not calculated, inhibition at 10 µM too low; read-out: Ki±SEM, H1. Here is the method: (§1) All the new compounds were dissolved in 5% DMSO. The following specific radioligands and tissue sources were used: (a) serotonin 5-HT1A receptor, [^3H]8-OH-DPAT, rat brain cortex; (b) serotonin 5-HT2A receptor, [^3H]ketanserin, rat brain cortex; (c) serotonin 5-HT2C receptor, [^3H]mesulergine, rat brain cortex; (d) dopamine D2 receptor, [^3H]spiperone, rat striatum; (e) dopamine D3 receptor, [^3H]spiperone, rat olfactory tubercle (f) histamine H1 receptor, [^3H] pyrilamine, guinea pig cerebellum.
(§2) Total binding was determined in the absence of no-specific binding and compounds. Specific binding was determined in the presence of compounds. Non-specific binding was determined as the difference between total and specific binding.
(§3) Percentage of inhibition (%) = (total binding − specific binding)×100%/(total binding − nonspecific binding).
(§4) Ki values were calculated based on the Cheng and Prussoff equation: Ki = IC50/(1+C/Kd) where C represents the concentration of the hot ligand used and Kd its receptor dissociation constant were calculated for each labeled ligand. Mean Ki values and SEM were reported for at least three independent experiments.
(§5) The incubation was followed by a rapid vacuum filtration through Whatman GF/B glass filters, and the filtrates were washed twice with 5 mL cold buffer and transferred to scintillation vials. Scintillation fluid (3.0 mL) was added and the radioactivity bound was measured using a Beckman LS 6500 liquid scintillation counter.

In the next data set the target is T2, dopamine D3 receptor (Rattus norvegicus, UniProt P19020).
T2 construct: Rat olfactory tubercle was homogenized in 20 volumes of ice-cold 50 mM Hepes Na; from tissue; host or cells: rat olfactory tubercle
T2 sequence (P19020 whole entry): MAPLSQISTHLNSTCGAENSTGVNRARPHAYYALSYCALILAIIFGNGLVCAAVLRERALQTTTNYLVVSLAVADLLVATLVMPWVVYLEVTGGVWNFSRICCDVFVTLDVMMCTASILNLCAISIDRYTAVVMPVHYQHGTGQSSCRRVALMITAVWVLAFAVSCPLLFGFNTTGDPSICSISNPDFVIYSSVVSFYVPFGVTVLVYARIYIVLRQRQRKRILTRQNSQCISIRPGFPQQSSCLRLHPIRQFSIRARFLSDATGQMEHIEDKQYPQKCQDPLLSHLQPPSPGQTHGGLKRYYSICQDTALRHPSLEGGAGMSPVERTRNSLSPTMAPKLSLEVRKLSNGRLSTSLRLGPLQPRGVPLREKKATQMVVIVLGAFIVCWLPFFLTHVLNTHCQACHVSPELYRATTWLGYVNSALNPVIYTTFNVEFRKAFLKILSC
As to the kind of experiment: D3 dopaminergic binding assay ([3H]spiperone, rat olfactory tubercle). To be noted: mean of three experiments, read-out: Ki±SEM, D3. As for the experimental part:
as §1, §2, §3, §4, §5

The target in data set [1] is T3, serotonin 5-HT1A receptor (Rattus norvegicus, UniProt P19327).
T3 construct: Rat cerebral cortex was homogenized in 20 volumes of ice-cold Tris-HCl buffer; from tissue; host or cells: rat brain (cerebral) cortex
T3 sequence (P19327 1-422): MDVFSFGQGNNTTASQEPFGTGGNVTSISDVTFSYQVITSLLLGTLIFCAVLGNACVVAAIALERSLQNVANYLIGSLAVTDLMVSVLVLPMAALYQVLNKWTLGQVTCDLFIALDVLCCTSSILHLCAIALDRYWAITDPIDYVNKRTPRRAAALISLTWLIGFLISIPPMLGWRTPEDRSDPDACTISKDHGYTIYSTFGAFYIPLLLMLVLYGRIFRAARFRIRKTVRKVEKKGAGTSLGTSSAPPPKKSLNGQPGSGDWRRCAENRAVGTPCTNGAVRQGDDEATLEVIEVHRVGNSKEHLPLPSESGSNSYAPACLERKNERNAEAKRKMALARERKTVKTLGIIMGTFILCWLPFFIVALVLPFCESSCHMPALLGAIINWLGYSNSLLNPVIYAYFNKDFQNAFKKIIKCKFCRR
As to the kind of experiment: 5-HT1A binding assay ([3H]8-OH-DPAT, rat brain cortex). The settings on record: [3H]8-OH-DPAT, rat brain cortex; mean of three experiments; >10000 marked b: Ki not calculated, inhibition at 10 µM too low; read-out: Ki±SEM, 5HT1A. As for the experimental part:
as §1, §2, §3, §4
Rat cerebral cortex was homogenized in 20 volumes of ice-cold Tris-HCl buffer (50 mM, pH 7.7) using an ULTRA TURAX homogeniser, and was then centrifuged at 32000 g for 10 min. […] The final pellet was resuspended in Tris-HCl buffer containing 10 µM Pargyline, 4 mM CaCl2 and 0.1% ascorbic acid.
Total binding each assay tube was added 900 µL of the tissue suspension, 50 µL of 0.5 nM [^3H]8-OH-DPAT (187.4 Ci/mmol, Perkin Elmer Life Sciences, Boston, MA, USA), 50 µL Tris-HCl buffer containing 10 µM Pargyline, 4 mM CaCl2 and 0.1% ascorbic acid.
Non-specific binding each assay tube was added 900 µL of the tissue suspension, 50 µL of 0.5 nM [^3H]8-OH-DPAT, 50 µL of 10 µM serotonin.
Specific binding each assay tube was added 900 µL of the tissue suspension, 50 µL of 0.5 nM [^3H]8-OH-DPAT, 50 µL of new compounds or reference drug.
The incubation was followed by a rapid vacuum filtration through Whatman GF/B glass filters, and the filtrates were washed twice with 5mL cold buffer and transferred to scintillation vials. Scintillation fluid (3.0 mL) was added and the radioactivity bound was measured using a Beckman LS 6500 liquid scintillation counter.

The target in the next data set is T4, dopamine D2 receptor (Rattus norvegicus, UniProt P61169).
T4 construct: Rat striatum was homogenized in 20 volumes of ice-cold 50 mM Tris-HCl buffer; from tissue; host or cells: rat striatum
T4 sequence (P61169 whole entry): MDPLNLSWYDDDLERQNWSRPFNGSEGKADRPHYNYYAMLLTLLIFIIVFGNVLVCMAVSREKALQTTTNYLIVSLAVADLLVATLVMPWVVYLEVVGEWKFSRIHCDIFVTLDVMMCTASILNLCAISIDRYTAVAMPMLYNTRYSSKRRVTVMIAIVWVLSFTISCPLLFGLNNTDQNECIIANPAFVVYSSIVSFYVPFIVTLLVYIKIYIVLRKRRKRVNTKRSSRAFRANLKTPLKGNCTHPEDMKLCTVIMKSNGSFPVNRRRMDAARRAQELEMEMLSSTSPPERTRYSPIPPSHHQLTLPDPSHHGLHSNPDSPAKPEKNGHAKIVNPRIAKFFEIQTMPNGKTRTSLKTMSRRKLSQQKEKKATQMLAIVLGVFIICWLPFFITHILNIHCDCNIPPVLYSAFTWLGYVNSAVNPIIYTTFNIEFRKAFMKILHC
As to the kind of experiment: D2 dopaminergic binding assay ([3H]spiperone, rat striatum). The settings on record: [3H]spiperone, rat striatum; mean of three experiments; >10000 marked b: Ki not calculated, inhibition at 10 µM too low; read-out: Ki±SEM, D2. As for the experimental part: as §1, §2, §3, §4
Rat striatum was homogenized in 20 volumes of ice-cold 50 mM Tris-HCl buffer (pH 7.7) using an ULTRA TURAX homogeniser, and centrifuged twice for 10 min at 48,000 g with resuspension of the pellet in fresh buffer. The final pellet was resuspended in 50 mM ice-cold Tris-HCl containing 120 mM NaCl, 5 mM KCl, 2 mM CaCl2, 1 mM MgCl2, 0.1% ascorbic acid and 5 µM pargyline.
Total binding each assay tube was added 900 µL of the tissue suspension, 50 µL of 0.5 nM [^3H]spiperone (16.2 Ci/mmol; Perkin Elmer Life Sciences, Boston, MA, USA), 50 µL Tris-HCl buffer containing 120 mM NaCl, 5 mM KCl, 2 mM CaCl2, 1 mM MgCl2, 0.1% ascorbic acid and 5 µM pargyline.
Non-specific binding each assay tube was added 900 µL of the tissue suspension, 50 µL of 0.5 nM [^3H]spiperone, 50 µL of 10 µM (+)-butaclamol.
Specific binding each assay tube was added 900 µL of the tissue suspension, 50 µL of 0.5 nM [^3H]spiperone, 50 µL of new compounds or reference drug.
as §5

The subject of a further data set is mice. The experiment in a line: Acute toxicity study. Type of data set: in vivo. The settings on record: oral, survival after 24 h, highest dose 2000 mg/kg. Here is the method: The number of surviving animals was recorded after 24 h of drug administration, and the percent mortality in each group was calculated.
Data set [2] concerns MK-801-induced hyperactivity in mice. The experiment in a line: MK-801-induced hyperactivity. To be noted: mice, po; 95% confidence limits in parentheses.
The test system of data set [3] is apomorphine-induced climbing behavior in mice. As to the kind of experiment: Apomorphine-induced climbing. Format: in vivo. The settings on record: mice, po; 95% confidence limits in parentheses. Here is the method: . […] . Animals were then challenged at 30 minutes post-injection with 1.0 mg/kg of the apomorphine in 0.9% NaCl+0.1% ascorbic acid, placed in cylindrical wire cages (12 cm in diameter, 14 cm in height), and observed for climbing behavior at 10, 20 and 30 min post dose. The climbing behaviour was scored as follows: 3–4 paws on the cage floor = 0 score; 2 and 3 paws on the cage = 1 score; 4 paws on the cage = 2 score.

A word on the Ki: it is a dissociation constant, usually derived from enzyme kinetics or from competition with a known ligand. By LD50 is commonly meant the dose expected to kill half of the subjects tested.

Marks after values point to notes of the source that are not given here.

T1 sequence (P31389 whole entry): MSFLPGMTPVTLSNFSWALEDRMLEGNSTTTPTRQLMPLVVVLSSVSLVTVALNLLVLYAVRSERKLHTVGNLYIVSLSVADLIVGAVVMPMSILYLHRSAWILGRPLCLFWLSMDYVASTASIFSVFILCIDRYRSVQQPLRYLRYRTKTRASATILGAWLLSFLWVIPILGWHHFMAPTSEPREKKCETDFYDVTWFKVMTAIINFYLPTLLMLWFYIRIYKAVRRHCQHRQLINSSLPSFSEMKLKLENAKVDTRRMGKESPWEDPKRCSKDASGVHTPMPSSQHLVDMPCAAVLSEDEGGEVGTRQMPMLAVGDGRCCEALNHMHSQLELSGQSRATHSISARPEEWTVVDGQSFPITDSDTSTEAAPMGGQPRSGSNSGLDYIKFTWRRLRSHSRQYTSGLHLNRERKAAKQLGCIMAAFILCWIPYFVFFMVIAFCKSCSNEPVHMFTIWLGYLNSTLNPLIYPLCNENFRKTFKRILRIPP

As for `Fc1ccc2c(C3CCN(CCCSc4nnc(-c5cccc6ccccc56)o4)CC3)noc2c1` [Compound 22, 2-(3-(4-(6-fluorobenzo[d]isoxazol-3-yl)piperidin-1-yl)propylthio)-5-(naphthalen-1-yl)-1,3,4-oxadiazole], the inhibitory constant (Ki) is greater than 10000 nM at histamine H1 receptor, 7.7 ± 0.6 nM at dopamine D3 receptor, 4.6 ± 0.8 nM in data set [1] and 23 ± 2.6 nM on dopamine D2 receptor. For the same compound, the 50% lethal dose (LD50) in the data set with mice is listed as greater than 2000 mg/kg. The “MK-801-induced hyperactivity ED50 (B)” value in data set [2] is given as 3.58 (2.59–8.28) mg/kg. In addition, the “Apomorphine-induced climbing ED50 (A)” value in data set [3] is given as 3.68 (2.79–4.86) ^a mg/kg.
